Measurements from patent US20260240154A1, “GLOBODERA PALLIDA CONTROL AGENT” (National Agriculture and Food Research Organization, priority 2021, published 2026).

System: Globodera pallida eggs
Test: Hatching accelerating effect evaluation test for Globodera pallida (liquid immersion test)
Format: in vivo
Conditions: 1 mL of 2 ppm test reagent solution added to 1 mL egg suspension; 16° C.; about 2 weeks; two replicates
Experimental: A predetermined amount of compound (I) was dissolved in an aqueous solution containing 0.05% (v/v) of polyoxyethylene sorbitan monolaurate (Tween20) to prepare a 100 ppm solution of compound (I).
The 100 ppm solution of compound (I) was further diluted with a 0.05% (v/v) Tween20 aqueous solution to prepare a test reagent solution with a concentration of compound (I) of 2 ppm.
The cysts of Globodera pallida increased in a greenhouse before the previous year were isolated from the soil, immersed in distilled water and kept at 16° C. for about 2 weeks were crushed with a scalpel and the eggs were taken out to obtain an egg suspension. After preparing a density of approximately 600 eggs per mL, Tween 20 was added to a concentration of 0.05% (v/v). 1 mL of this egg suspension was put into a 13.5 mL screw cap glass vial (inner diameter: 2.1 cm, height: 4.8 cm), and 1 mL each of a test reagent solution with a concentration of compound (I) of 2 ppm was added. It was covered and kept at 16° C.
About 2 weeks later, 1 mL was taken out, and the number of hatching larvae and the number of eggs were counted under a stereomicroscope. Two replicates were installed for each compound, and the average hatching rate was calculated.

Q: How did the “Average hatching rate (%)” value turn out when `Cc1ccc(C2CS(=O)(=O)NC2(C)C)cc1` (centres unmarked) [Compound B-11] was run?
A: The value was 80.2%.

Q: Which “Average hatching rate (%)” value does the source give for `CC1(C)NC(=O)CC1c1ccccc1` (centres unmarked) [Compound 1, 5,5-dimethyl-4-phenyl-2-pyrrolidinone] here?
A: The value was 83.0%.

Q: How did the “Average hatching rate (%)” value turn out when `CC1(C)SC(=O)CCC1c1ccc(Cl)cc1` (centres unmarked) [Compound A-6, 5-(4-chlorophenyl)-6,6-dimethyl tetrahydro-2H-thiopyran-2-one] was run?
A: The value was 93.6%.

Q: For `Cc1cc(C)cc(C2CC(=O)OC2(C)C)c1` [Compound D-4], which “Average hatching rate (%)” value is on record?
A: The value was 40.1%.

Q: Which “Average hatching rate (%)” value does the source give for `CC1(C)OC(=O)C=C1c1cccc2ccccc12` [Compound D-10] here?
A: Its value is 36.4%.

Q: `CC1(C)NC(=O)CCC1c1ccc(Br)cc1` (centres unmarked) [Compound A-2] was tested. Which “Average hatching rate (%)” value did it give?
A: The value was 97.4%.

Q: Which “Average hatching rate (%)” value does the source give for `Cc1cccc(C2CC(=O)NC2(C)C)c1` (centres unmarked) [Compound 9, 5,5-dimethyl-4-(3-methylphenyl)-2-pyrrolidinone] here?
A: Its value is 72.3%.

Q: `CC1(C)NS(=O)(=O)CC1c1ccccc1` (centres unmarked) [Compound B-9] was tested. Which “Average hatching rate (%)” value did it give?
A: The value was 69.5%.

Q: With `CC1(C)NC(=O)CC1c1ccc(Cl)c(Cl)c1` [Compound D-7] as the molecule, how does the “Average hatching rate (%)” value read?
A: Its value is 95.2%.

Q: Which “Average hatching rate (%)” value does the source give for `Cc1ccc(C2CC(=O)SC2(C)C)cc1` (centres unmarked) [Compound B-6, 5,5-dimethyl-4-(p-tolyl)dihydrothiophene-2 (3H)-one] here?
A: The value was 97.1%.

Q: How did the “Average hatching rate (%)” value turn out when `CC1(C)OC(=O)C=C1c1ccc(Cl)cc1` [Compound D-9] was run?
A: Its value is 50.1%.

Q: For `Cc1ccccc1C1=CC(=O)NC1(C)C` [Compound D-18], which “Average hatching rate (%)” value is on record?
A: The value was 58.8%.

Q: For `CC1(C)NS(=O)(=O)CC1c1ccc(Br)cc1` (centres unmarked) [Compound B-10], which “Average hatching rate (%)” value is on record?
A: Its value is 82.7%.

Q: For `CC1(C)SC(=O)CCC1c1ccccc1` (centres unmarked) [Compound A-5], which “Average hatching rate (%)” value is on record?
A: The value was 92.6%.

Q: Which “Average hatching rate (%)” value does the source give for `CC1(C)NC(=O)CCC1c1ccccc1` (centres unmarked) [Compound A-1] here?
A: The value was 77.4%.

Q: For `CC1(C)SC(=O)CC1c1ccc(Cl)cc1` (centres unmarked) [Compound B-7], which “Average hatching rate (%)” value is on record?
A: The value was 96.6%.

Q: With `Cc1ccc(C)c(C2=CC(=O)OC2(C)C)c1` [Compound D-16] as the molecule, how does the “Average hatching rate (%)” value read?
A: The value was 66.5%.

Q: Which “Average hatching rate (%)” value does the source give for `Cc1ccc(C2CC(=O)OC2(C)C)cc1C` [Compound D-3] here?
A: Its value is 58.8%.

Q: How did the “Average hatching rate (%)” value turn out when `Cc1ccc(C2CC(=S)NC2(C)C)cc1` [Compound D-8] was run?
A: Its value is 91.8%.

Q: `Cc1ccccc1C1=CC(=O)OC1(C)C` [Compound D-13] was tested. Which “Average hatching rate (%)” value did it give?
A: The value was 60.1%.

Q: How did the “Average hatching rate (%)” value turn out when `CC1(C)SC(=O)CC1c1ccc(Br)cc1` (centres unmarked) [Compound B-5] was run?
A: The value was 96.9%.

Q: For `CC1(C)OC(=O)CC1c1ccccc1` (centres unmarked) [Compound 17, 5,5-dimethyl-4-phenyldihydrofuran-2(3H)-one], which “Average hatching rate (%)” value is on record?
A: Its value is 58.6%.

Q: For `COc1ccc(C2CC(=O)NC2(C)C)cc1` (centres unmarked) [Compound 6, 5,5-dimethyl-4-(4-methoxyphenyl)-2-pyrrolidinone], which “Average hatching rate (%)” value is on record?
A: Its value is 38.0%.

Q: With `Cc1ccc(C2=CC(=O)NC2(C)C)c(C)c1` [Compound D-19] as the molecule, how does the “Average hatching rate (%)” value read?
A: The value was 95.7%.

Q: How did the “Average hatching rate (%)” value turn out when `Cc1ccc(C)c(C2CC(=O)SC2(C)C)c1` (centres unmarked) [Compound B-8] was run?
A: The value was 51.2%.

Q: With `CC1(C)NC(=S)CC1c1ccccc1` (centres unmarked) [Compound 16, 5,5-dimethyl-4-phenyl pyrrolidine-2-thione] as the molecule, how does the “Average hatching rate (%)” value read?
A: Its value is 69.2%.

Q: With `CC1(C)NC(=O)CC1c1cc(F)c(F)c(F)c1` (centres unmarked) [Compound 13, 5,5-dimethyl-4-(3,4,5-trifluoro-phenyl)-2-pyrrolidinone] as the molecule, how does the “Average hatching rate (%)” value read?
A: The value was 62.6%.

Q: How did the “Average hatching rate (%)” value turn out when `CC1(C)OC(=O)CC1c1ccc(F)cc1` (centres unmarked) [Compound 19, 4-(4-fluorophenyl)-5,5-dimethyldihydrofuran-2(3H)-one] was run?
A: Its value is 84.6%.

Q: For `Cc1ccccc1C1CC(=O)NC1(C)C` (centres unmarked) [Compound 10, 5,5-dimethyl-4-(2-methylphenyl)-2-pyrrolidinone], which “Average hatching rate (%)” value is on record?
A: The value was 69.2%.

Q: With `CC1(C)OC(=O)C=C1c1ccc(-c2ccc(Cl)cc2)cc1` [Compound D-12] as the molecule, how does the “Average hatching rate (%)” value read?
A: The value was 52.0%.

Q: With `CC1(C)SC(=O)CC1c1ccccc1` (centres unmarked) [Compound B-4] as the molecule, how does the “Average hatching rate (%)” value read?
A: The value was 96.3%.

Q: How did the “Average hatching rate (%)” value turn out when `CC1(C)CC(=O)CC1c1ccccc1` (centres unmarked) [Compound 21, 3,3-dimethyl-4-phenyl-cyclopentanone] was run?
A: The value was 76.6%.

Q: `CC1(C)NC(=O)[C@H]2C[C@]21c1ccccc1` (stereo in doubt) [Compound C-1, 4,4-dimethyl-5-phenyl-3-azabicyclo[3.1.0]hexan-2-one] was tested. Which “Average hatching rate (%)” value did it give?
A: The value was 94.0%.

Q: Which “Average hatching rate (%)” value does the source give for `Cc1ccccc1C1CC(=O)OC1(C)C` (centres unmarked) [Compound 20, 5,5-dimethyl-4-(o-tolyl)dihydrofuran-2(3H)-one] here?
A: Its value is 63.1%.

Q: `Cc1ccc(C2CCC(=O)SC2(C)C)cc1` (centres unmarked) [Compound A-7] was tested. Which “Average hatching rate (%)” value did it give?
A: The value was 93.9%.

Q: Which “Average hatching rate (%)” value does the source give for `CC1(C)NC(=O)CC1c1ccc(F)cc1` (centres unmarked) [Compound 8, 5,5-dimethyl-4-(4-fluorophenyl)-2-pyrrolidinone] here?
A: The value was 94.1%.

Q: How did the “Average hatching rate (%)” value turn out when `Cc1cc(C)cc(C2=CC(=O)OC2(C)C)c1` [Compound D-17] was run?
A: The value was 55.4%.

Q: Which “Average hatching rate (%)” value does the source give for `CC(C)(C)c1ccc(C2CC(=O)OC2(C)C)cc1` [Compound D-6] here?
A: The value was 67.5%.

Q: `Cc1cccc(C2CC(=O)OC2(C)C)c1C` [Compound D-1] was tested. Which “Average hatching rate (%)” value did it give?
A: The value was 65.6%.

Q: For `CC1(C)NC(=O)CC1c1ccc(C(F)(F)F)cc1` (centres unmarked) [Compound 7, 5,5-dimethyl-4-(4-trifluoromethylphenyl)-2-pyrrolidinone], which “Average hatching rate (%)” value is on record?
A: Its value is 86.6%.

Q: `Cc1cccc(C2=CC(=O)OC2(C)C)c1C` [Compound D-14] was tested. Which “Average hatching rate (%)” value did it give?
A: The value was 63.7%.

Same assay, conditions: 1 ppm; optically active compounds

Q: How did the “Average hatching rate at 1 ppm (%)” value turn out when `Cc1ccc(C2CC(=O)NC2(C)C)cc1` (single isomer, unassigned; (+)) [2 (+), (+)-5,5-dimethyl-4-(4-methylphenyl)-2-pyrrolidinone] was run?
A: The value was 63.6%.

Q: `CC1(C)NS(=O)(=O)CC1c1ccc(Cl)cc1` (single isomer, unassigned; (+)) [B-12 (+), (+)-4-(4-chlorophenyl)-3,3-dimethylisothiazolidine-1,1-dioxide] was tested. Which “Average hatching rate at 1 ppm (%)” value did it give?
A: Its value is 95.2%.

Q: `CC1(C)NC(=O)CC1c1ccccc1` (single isomer, unassigned; (+)) [1 (+), (+)-5,5-dimethyl-4-phenyl-2-pyrrolidinone] was tested. Which “Average hatching rate at 1 ppm (%)” value did it give?
A: The value was 37.8%.

Q: `CC1(C)NC(=O)CC1c1ccccc1` (single isomer, unassigned) [1 (−), 5,5-dimethyl-4-phenyl-2-pyrrolidinone] was tested. Which “Average hatching rate at 1 ppm (%)” value did it give?
A: Its value is 87.7%.

Q: Which “Average hatching rate at 1 ppm (%)” value does the source give for `CC1(C)NC(=O)CC1c1ccc(Cl)cc1` (single isomer, unassigned; (+)) [3 (+), (+)-5,5-dimethyl-4-(4-chlorophenyl)-2-pyrrolidinone] here?
A: Its value is 93.2%.

Q: For `Cc1ccc(C2CC(=O)NC2(C)C)cc1` (single isomer, unassigned; (-)) [Compound 2 (−), (−)-5,5-dimethyl-4-(4-methylphenyl)-2-pyrrolidinone], which “Average hatching rate at 1 ppm (%)” value is on record?
A: The value was 91.8%.
